Earlier results on two compounds are cited in US12624058B2, “Promoiety strategy to enhance drug activity” (UNIVERSITY OF SOUTHERN CALIFORNIA, priority 2020, dated 2026).

Usually EC50 stands for the concentration needed to bring the measured effect to its halfway point.

Bounds are passed on as bounds.

Data set [1] relates to Ad5. The following applies: immunosuppressed Syrian hamster model.
For data set [2] the following is noted: in vivo.
For data set [3] the following is noted: in vivo. The source holds these as a separate data set.
The subject of data set [4] is Ad viremia.
In data set [5] the test system is multiple Ad types. The following applies: cell culture; read-out: EC50, replication of multiple Ad types.

As to `Nc1ccn(C[C@@H](CO)OCP(=O)(O)O)c(=O)n1` [CDV, (S)-1-(3-hydroxy-2-phosphonomethoxypropyl)cytosine], the “efficacy against Ad5 replication and pathogenesis” value in data set [1] is on record as “effective”. In data set [2], the oral bioavailability is reported as below 5%. In data set [3], the nephrotoxicity result was “causes nephrotoxicity”.
Regarding `CCCCCCCCCCCCCCCCOCCCOP(=O)(O)CO[C@H](CO)Cn1ccc(N)nc1=O` [BCV], the GI side effect result in data set [4] (phase II clinical trial) was “symptomatic GI irritation was observed”. The “reduction of Ad viremia” value in data set [4] (preemptive treatment, pediatric and adult patients) was “reduced Ad viremia in some of these patients however, the result was not statistically significant”. Besides, the “efficacy against Ad5 replication and pathogenesis” value in data set [1] is “effective”. For the same compound, the EC50 in data set [5] is around 20 nM. Besides, the nephrotoxicity entry in data set [3] is recorded as “little or no nephrotoxicity”.
